From ChEMBL document CHEMBL1201862, “PubChem BioAssay data set” (2004)
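Method: 48-hour compound exposure of cells in 96-well plates, five concentrations, linear interpolation of endpoints. Abbreviation: GI50, concentration required for 50% inhibition of growth.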 Activity calls are given as the source filed them. No stated cut-off is given here; in the data, active = GI50 up to about 1.1 µM and inactive = higher.

Key:
Experiment in all cases: inhibition of tumour cell growth, NCI panel, 48 h
MOLT-4 = tested on: MOLT-4
SN12C = tested on: SN12C
RPMI-8226 = tested on: RPMI-8226
SK-OV-3 = tested on: SK-OV-3
786-0 = tested on: 786-0
MDA-N = tested on: MDA-N
CCRF-CEM = tested on: CCRF-CEM
OVCAR-4 = tested on: OVCAR-4
NCI-H23 = tested on: NCI-H23
NCI-H522 = tested on: NCI-H522
SW-620 = tested on: SW-620
DU-145 = tested on: DU-145
TK-10 = tested on: TK-10
SF-295 = tested on: SF-295
ACHN = tested on: ACHN
HOP-62 = tested on: HOP-62
NCI-H460 = tested on: NCI-H460
COLO 205 = tested on: COLO 205
NCI-H226 = tested on: NCI-H226
HOP-92 = tested on: HOP-92

Measured: GI50

COc1ccc(NC2CC(C)N(C(=O)c3ccccc3)O2)cc1 (stereo not drawn)
inactive: MOLT-4 > 10 µM | SN12C > 10 µM | RPMI-8226 > 10 µM | SK-OV-3 > 10 µM | 786-0 > 10 µM | MDA-N > 10 µM | CCRF-CEM > 10 µM | OVCAR-4 > 10 µM | NCI-H23 > 10 µM | NCI-H522 > 10 µM | SW-620 > 10 µM | DU-145 > 10 µM | TK-10 > 10 µM | SF-295 > 10 µM | ACHN > 10 µM | HOP-62 > 10 µM | NCI-H460 > 10 µM | COLO 205 > 10 µM

CC(NC(=O)c1ccccc1)NC(=O)C(C)C(=O)Nc1ccccc1 (stereo not drawn)
inactive: MOLT-4 > 100 µM | SN12C > 100 µM | RPMI-8226 > 100 µM | NCI-H226 89.5 µM | SK-OV-3 > 100 µM | 786-0 > 100 µM | MDA-N > 100 µM | CCRF-CEM > 100 µM | OVCAR-4 > 100 µM | NCI-H23 > 100 µM | NCI-H522 > 100 µM | SW-620 > 100 µM | DU-145 > 100 µM | HOP-92 49.1 µM | TK-10 75.2 µM | SF-295 > 100 µM | ACHN > 100 µM | NCI-H460 > 100 µM | COLO 205 > 100 µM

Nn1c(Nc2ccc(S(=O)(=O)Nc3ncccn3)cc2)nnc(/C=C/c2c(O)ccc3ccccc23)c1=O
inactive: MOLT-4 > 100 µM | SN12C 28.3 µM | RPMI-8226 34.1 µM | 786-0 26.6 µM | MDA-N 31.4 µM | CCRF-CEM 15.8 µM | OVCAR-4 24.5 µM | NCI-H23 19.8 µM | NCI-H522 34.3 µM | SW-620 31.8 µM | DU-145 33.5 µM | HOP-92 66.2 µM | TK-10 26.8 µM | ACHN 25.8 µM | HOP-62 33.6 µM | NCI-H460 23.3 µM

CC1OC(OC2C(OC3CCC4(C)C(CCC5(C)C4CC=C4C6CC(C)(C)CCC6(C(=O)O)CCC45C)C3(C)CO)OCC(O)C2O)C(O)C(O)C1O (stereo not drawn)
inactive: MOLT-4 14.6 µM | SN12C 21.1 µM | NCI-H226 21.2 µM | SK-OV-3 18.1 µM | 786-0 30.7 µM | MDA-N 21.1 µM | CCRF-CEM 4.68 µM | OVCAR-4 11.8 µM | NCI-H23 17.7 µM | NCI-H522 13.3 µM | SW-620 11.7 µM | DU-145 18.9 µM | HOP-92 10.1 µM | TK-10 20 µM | SF-295 15.1 µM | ACHN 19 µM | HOP-62 29.6 µM | NCI-H460 19 µM | COLO 205 20.8 µM

C[C@]12CCC(O)CC1=CC[C@@H]1[C@@H]2CC[C@]2(C)C(O)[C@H](n3ccnc3)C[C@@H]12 (stereo partly drawn)
inactive: MOLT-4 17.4 µM | SN12C > 100 µM | RPMI-8226 22.4 µM | NCI-H226 > 100 µM | 786-0 > 100 µM | MDA-N 79.3 µM | CCRF-CEM 17.9 µM | OVCAR-4 > 100 µM | NCI-H23 19.5 µM | NCI-H522 58.6 µM | SW-620 > 100 µM | DU-145 > 100 µM | HOP-92 20.2 µM | TK-10 > 100 µM | SF-295 52 µM | ACHN 62.2 µM | NCI-H460 24.8 µM | COLO 205 47.4 µM

O=C(COc1cc(=O)oc2ccccc12)c1ccccc1
inactive: MOLT-4 > 100 µM | SN12C > 100 µM | RPMI-8226 > 100 µM | NCI-H226 19.1 µM | 786-0 30.2 µM | MDA-N 47 µM | CCRF-CEM 71.6 µM | OVCAR-4 29.6 µM | NCI-H23 25.2 µM | NCI-H522 32.4 µM | SW-620 44.8 µM | DU-145 > 100 µM | HOP-92 16.7 µM | TK-10 > 100 µM | SF-295 29.1 µM | ACHN 19.8 µM | HOP-62 37.8 µM | NCI-H460 > 100 µM

O=C(NC1CCC(=O)N1C(=O)OCc1ccccc1)OCc1ccccc1 (stereo not drawn)
inactive: MOLT-4 > 100 µM | SN12C > 100 µM | RPMI-8226 > 100 µM | NCI-H226 > 100 µM | SK-OV-3 > 100 µM | 786-0 > 100 µM | MDA-N > 100 µM | NCI-H23 > 100 µM | NCI-H522 > 100 µM | SW-620 > 100 µM | DU-145 > 100 µM | HOP-92 > 100 µM | TK-10 > 100 µM | SF-295 > 100 µM | ACHN > 100 µM | HOP-62 > 100 µM | NCI-H460 > 100 µM | COLO 205 > 100 µM

CNS(=O)(=O)c1ccc2c(c1)/C(=C1/Nc3ccccc3C1=O)C(=O)N2
inactive: MOLT-4 39.6 µM | SN12C > 100 µM | RPMI-8226 > 100 µM | NCI-H226 > 100 µM | SK-OV-3 92.9 µM | MDA-N > 100 µM | CCRF-CEM 30.8 µM | NCI-H23 9.4 µM | NCI-H522 > 100 µM | SW-620 > 100 µM | DU-145 > 100 µM | TK-10 > 100 µM | SF-295 > 100 µM | ACHN > 100 µM | HOP-62 > 100 µM | NCI-H460 > 100 µM | COLO 205 > 100 µM

COC(=O)C1(C)CCc2c(ccc3ccccc23)C1=O (stereo not drawn)
inactive: MOLT-4 34.8 µM | SN12C 44.7 µM | RPMI-8226 23.2 µM | SK-OV-3 71.1 µM | 786-0 65 µM | MDA-N 27 µM | CCRF-CEM 37.3 µM | NCI-H23 51.6 µM | NCI-H522 24.9 µM | SW-620 39 µM | DU-145 51.9 µM | HOP-92 45.4 µM | TK-10 31 µM | SF-295 39.7 µM | ACHN 55.1 µM | HOP-62 78.7 µM | NCI-H460 40.5 µM | COLO 205 21.3 µM

C=CCOc1ccc(C(/N=N\c2ccc(Cl)cc2)=N/NC(=O)c2ccccc2)cc1OC
inactive: MOLT-4 32.1 µM | SN12C 50.5 µM | NCI-H226 53.7 µM | 786-0 > 100 µM | MDA-N 35 µM | CCRF-CEM 29.5 µM | OVCAR-4 76.7 µM | NCI-H23 60 µM | NCI-H522 41.3 µM | SW-620 > 100 µM | DU-145 > 100 µM | HOP-92 32.1 µM | TK-10 > 100 µM | SF-295 > 100 µM | ACHN 89.1 µM | HOP-62 > 100 µM | NCI-H460 36.1 µM | COLO 205 85.3 µM

NNC(=O)c1c(Cl)c(Cl)c(Cl)c(Cl)c1-c1nc2ccccc2[nH]1
inactive: MOLT-4 4.66 µM | SN12C 27 µM | RPMI-8226 7.4 µM | NCI-H226 16.8 µM | SK-OV-3 15.7 µM | 786-0 18.5 µM | MDA-N 2.94 µM | CCRF-CEM 12.5 µM | NCI-H23 15.6 µM | NCI-H522 13.4 µM | SW-620 10 µM | DU-145 13.2 µM | HOP-92 18.5 µM | TK-10 21.6 µM | SF-295 4.91 µM | ACHN 17.1 µM | HOP-62 4.29 µM | NCI-H460 11.8 µM | COLO 205 16.4 µM

Cn1c(NN)nc(-c2ccc([N+](=O)[O-])cc2)c(C#N)c1=O
inactive: SN12C 15.6 µM | RPMI-8226 29.1 µM | NCI-H226 11 µM | SK-OV-3 14.9 µM | 786-0 14.2 µM | MDA-N 12.4 µM | CCRF-CEM 25.4 µM | OVCAR-4 15.6 µM | NCI-H23 13.4 µM | NCI-H522 16.4 µM | SW-620 12.7 µM | DU-145 16.4 µM | TK-10 14.3 µM | SF-295 16.1 µM | ACHN 12.2 µM | HOP-62 14.1 µM | NCI-H460 17.3 µM | COLO 205 20 µM

Cc1ccc2c(sc(-c3ccc4c(c3)sc(-c3ccc(N(C)C)cc3)[n+]4C)[n+]2C)c1S(=O)(=O)O.Cc1ccc2c(sc(-c3ccc4c(c3)sc(-c3ccc5c(c3)sc(-c3ccc(N(C)C)cc3)[n+]5C)[n+]4C)[n+]2C)c1S(=O)(=O)O
inactive: MOLT-4 51.9 µM | SN12C > 100 µM | RPMI-8226 80.2 µM | SK-OV-3 > 100 µM | 786-0 > 100 µM | MDA-N > 100 µM | CCRF-CEM 10 µM | OVCAR-4 43 µM | NCI-H23 > 100 µM | NCI-H522 30.4 µM | SW-620 > 100 µM | DU-145 > 100 µM | HOP-92 > 100 µM | TK-10 > 100 µM | SF-295 > 100 µM | ACHN 62.7 µM | NCI-H460 10 µM | COLO 205 > 100 µM

C(=N\c1cc2cc(Sc3ccccc3)ccc2[nH]1)/c1ccccc1
inactive: MOLT-4 > 12.5 µM | SN12C > 12.5 µM | RPMI-8226 > 12.5 µM | 786-0 > 12.5 µM | MDA-N 4.91 µM | CCRF-CEM > 12.5 µM | OVCAR-4 > 12.5 µM | NCI-H23 > 12.5 µM | NCI-H522 > 12.5 µM | SW-620 > 12.5 µM | DU-145 > 12.5 µM | HOP-92 > 12.5 µM | SF-295 11 µM | ACHN > 12.5 µM | HOP-62 2.08 µM

CCCCOc1ccc(S(=O)(=O)/N=C(\NN)Nc2ccc(Cl)cc2)cc1
inactive: MOLT-4 23.3 µM | SN12C 19.2 µM | RPMI-8226 30.1 µM | NCI-H226 29.6 µM | SK-OV-3 27 µM | 786-0 17.1 µM | MDA-N 32.3 µM | CCRF-CEM 20 µM | OVCAR-4 19.1 µM | NCI-H23 36.1 µM | SW-620 29.4 µM | DU-145 17.2 µM | HOP-92 25.2 µM | TK-10 43.5 µM | SF-295 23.4 µM | ACHN 69.7 µM | HOP-62 20.4 µM | NCI-H460 16.4 µM | COLO 205 18 µM
